# Assay results reported in patent US20230312587A1, “PTERIDINONE COMPOUNDS AND USES THEREOF” (Vertex Pharmaceutical Incorporated, priority 2018, published 2023).
# Test system: β-catenin-TCF-mediated reporter transcription activity in Colo 205 cells
# Assay: Colo 205 reporter assay (TCF/LEF luciferase)
# Assay type: cell-based
# Conditions: Homo sapiens, COLO 205, 5 h, Colo 205 TCF/LEF luciferase reporter, five hours after addition of compound; read-out: TCF reporter Colo205 IC50
# How it was run: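 Luciferase signal from a TCF/LEF-driven reporter, stably integrated in Colo 205 colon cancer cells, was measured 5 h after compound addition.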
row,Compound,IC50
1,"Cc1nc(N[C@H]2C[C@@H](Sc3ccc(OC(F)(F)F)cc3)C2)nc2c1N(C)C(=O)[C@H](C)N2C [Compound 348, (7S)-4,5,7,8-tetramethyl-2-((cis-3-((4-(trifluoromethoxy)phenyl)thio)cyclobutyl)amino)-7,8-dihydropteridin-6(5H)-one]",1000 to 5000 nM
2,"Cc1nc(N[C@H]2C[C@H](Oc3cc(F)c(O)c(F)c3)C2)nc2c1NC(=O)[C@H](C)N2C [Compound 349, (7S)-2-((trans-3-(3,5-difluoro-4-hydroxyphenoxy)cyclobutyl)amino)-4,7,8-trimethyl-7,8-dihydropteridin-6(5H)-one]",≥ 5000 nM
3,"COc1ccc(O[C@H]2C[C@H](Nc3nc(C)c4c(n3)N(C)[C@@H](C)C(=O)N4)C2)cc1F [Compound 350, (7S)-2-((trans-3-(3-fluoro-4-methoxyphenoxy)cyclobutyl)amino)-4,7,8-trimethyl-7,8-dihydropteridin-6(5H)-one]",300 to 1000 nM
4,"COc1ccc(O[C@H]2C[C@H](Nc3nc(C)c4c(n3)N(C)[C@@H](C)C(=O)N4C)C2)cc1F [Compound 351, (7S)-2-((trans-3-(3-fluoro-4-methoxyphenoxy)cyclobutyl)amino)-4,5,7,8-tetramethyl-7,8-dihydropteridin-6(5H)-one]",1000 to 5000 nM
5,"COc1ccc(O[C@H]2C[C@H](Nc3nc(C)c4c(n3)N(C)[C@@H](C)C(=O)N4)C2)cc1OC [Compound 352, (7S)-2-((trans-3-(3,4-dimethoxyphenoxy)cyclobutyl)amino)-4,7,8-trimethyl-7,8-dihydropteridin-6(5H)-one]",1000 to 5000 nM
6,"COc1ccc(O[C@H]2C[C@H](Nc3nc(C)c4c(n3)N(C)[C@@H](C)C(=O)N4C)C2)cc1OC [Compound 353, (7S)-2-((trans-3-(3,4-dimethoxyphenoxy)cyclobutyl)amino)-4,5,7,8-tetramethyl-7,8-dihydropteridin-6(5H)-one]",≥ 5000 nM
7,"COc1ccc(O[C@H]2C[C@H](Nc3nc(C)c4c(n3)N(C)[C@@H](C)C(=O)N4)C2)c(F)c1 [Compound 354, (7S)-2-((trans-3-(2-fluoro-4-methoxyphenoxy)cyclobutyl)amino)-4,7,8-trimethyl-7,8-dihydropteridin-6(5H)-one]",1000 to 5000 nM
8,"COc1ccc(O[C@H]2C[C@H](Nc3nc(C)c4c(n3)N(C)[C@@H](C)C(=O)N4C)C2)c(F)c1 [Compound 355, (7S)-2-((trans-3-(2-fluoro-4-methoxyphenoxy)cyclobutyl)amino)-4,5,7,8-tetramethyl-7,8-dihydropteridin-6(5H)-one]",1000 to 5000 nM
9,"Cc1nc(N[C@H]2C[C@H](Oc3ccc(F)nc3)C2)nc2c1N(C)C(=O)[C@H](C)N2C [Compound 358, (7S)-2-((trans 3-((6-fluoropyridin-3-yl)oxy)cyclobutyl)amino)-4,5,7,8-tetramethyl-7,8-dihydropteridin-6(5H)-one]",1000 to 5000 nM
10,"Cc1nc(N[C@H]2C[C@H](Oc3ccc(OC(F)(F)F)c(F)c3)C2)nc2c1NC(=O)[C@H](C)N2C [Compound 359, (7S)-2-((trans-3-(3-fluoro-4-(trifluoromethoxy)phenoxy)cyclobutyl)amino)-4,7,8-trimethyl-7,8-dihydropteridin-6(5H)-one]",< 300 nM
11,"Cc1nc(N[C@H]2C[C@H](Oc3ccc(OC(F)(F)F)c(F)c3)C2)nc2c1N(C)C(=O)[C@H](C)N2C [Compound 360, (7S)-2-((trans 3-(3-fluoro-4-(trifluoromethoxy)phenoxy)cyclobutyl)amino)-4,5,7,8-tetramethyl-7,8-dihydropteridin-6(5H)-one]",< 300 nM
12,"Cc1nc(N[C@H]2C[C@H](Oc3ccc(OC(F)F)nc3)C2)nc2c1NC(=O)[C@H](C)N2C [Compound 361, (7S)-2-((trans-3-((6-(difluoromethoxy)pyridin-3-yl)oxy)cyclobutyl)amino)-4,7,8-trimethyl-7,8-dihydropteridin-6(5H)-one]",< 300 nM
13,"Cc1nc(N[C@H]2C[C@H](Oc3ccc(OC(F)F)nc3)C2)nc2c1N(C)C(=O)[C@H](C)N2C [Compound 362, (7S)-2-((trans-3-((6-(difluoromethoxy)pyridin-3-yl)oxy)cyclobutyl)amino)-4,5,7,8-tetramethyl-7,8-dihydropteridin-6(5H)-one]",300 to 1000 nM
14,"Cc1nc(N[C@H]2C[C@@H](COc3cncc(C(F)(F)F)c3)C2)nc2c1NC(=O)[C@H](C)N2C [Compound 363, (7S)-4,7,8-trimethyl-2-((cis-3-(((5-(trifluoromethyl)pyridin-3-yl)oxy)methyl)cyclobutyl)amino)-7,8-dihydropteridin-6(5H)-one]",< 300 nM
15,"Cc1nc(N[C@H]2C[C@@H](COc3ccc(C(F)(F)F)nc3)C2)nc2c1NC(=O)[C@H](C)N2C [Compound 364, (7S)-4,7,8-trimethyl-2-((cis-3-(((6-(trifluoromethyl)pyridin-3-yl)oxy)methyl)cyclobutyl)amino)-7,8-dihydropteridin-6(5H)-one]",< 300 nM
16,"Cc1cc(C(F)(F)F)cc(OC[C@H]2C[C@@H](Nc3nc(C)c4c(n3)N(C)[C@@H](C)C(=O)N4)C2)n1 [Compound 365, (7S)-4,7,8-trimethyl-2-((cis-3-(((6-methyl-4-(trifluoromethyl)pyridin-2-yl)oxy)methyl)cyclobutyl)amino)-7,8-dihydropteridin-6(5H)-one]",< 300 nM
17,"Cc1nc(N[C@H]2C[C@@H](COc3cncc(Cl)c3)C2)nc2c1NC(=O)[C@H](C)N2C [Compound 366, (7S)-2-((cis-3-(((5-chloropyridin-3-yl)oxy)methyl)cyclobutyl)amino)-4,7,8-trimethyl-7,8-dihydropteridin-6(5H)-one]",< 300 nM
18,"Cc1nc(N[C@H]2C[C@@H](COc3cnc(Cl)c(F)c3)C2)nc2c1NC(=O)[C@H](C)N2C [Compound 367, (7S)-2-((cis-3-(((6-chloro-5-fluoropyridin-3-yl)oxy)methyl)cyclobutyl)amino)-4,7,8-trimethyl-7,8-dihydropteridin-6(5H)-one]",< 300 nM
19,"Cc1nc(N[C@H]2C[C@H](COc3cc(C(F)(F)F)ccn3)C2)nc2c1NC(=O)[C@H](C)N2C [Compound 369, (7S)-4,7,8-trimethyl-2-((trans-3-(((4-(trifluoromethyl)pyridin-2-yl)oxy)methyl)cyclobutyl)amino)-7,8-dihydropteridin-6(5H)-one]",≥ 5000 nM
20,"COc1cc(O[C@H]2C[C@H](Nc3nc(C)c4c(n3)N(C)[C@@H](C)C(=O)N4)C2)ccc1F [Compound 370, (7S)-2-((trans-3-(4-fluoro-3-methoxyphenoxy)cyclobutyl)amino)-4,7,8-trimethyl-7,8-dihydropteridin-6(5H)-one]",< 300 nM
21,"Cc1nc(N[C@H]2CCN(Cc3ccccc3)C2)nc2c1NC(=O)[C@H](C)N2C [Compound 371, (7S)-2-(((S)-1-benzylpyrrolidin-3-yl)amino)-4,7,8-trimethyl-7,8-dihydropteridin-6(5H)-one]",≥ 5000 nM
22,"Cc1nc(N[C@@H]2CCN(Cc3ccccc3)C2)nc2c1NC(=O)[C@H](C)N2C [Compound 372, (7S)-2-(((R)-1-benzylpyrrolidin-3-yl)amino)-4,7,8-trimethyl-7,8-dihydropteridin-6(5H)-one]",≥ 5000 nM
23,"COc1cc(O[C@H]2C[C@H](Nc3nc(C)c4c(n3)N(C)[C@@H](C)C(=O)N4C)C2)ccc1F [Compound 373, (7S)-2-((trans-3-(4-fluoro-3-methoxyphenoxy)cyclobutyl)amino)-4,5,7,8-tetramethyl-7,8-dihydropteridin-6(5H)-one]",300 to 1000 nM
24,"Cc1nc(N[C@H]2CCN(Cc3ccc(F)cc3)C2)nc2c1NC(=O)[C@H](C)N2C [Compound 374, (7S)-2-(((S)-1-(4-fluorobenzyl)pyrrolidin-3-yl)amino)-4,7,8-trimethyl-7,8-dihydropteridin-6(5H)-one]",≥ 5000 nM
25,"Cc1nc(N[C@H]2C[C@H](Oc3cc(F)c(F)c(F)c3)C2)nc2c1N(CCF)C(=O)[C@H](C)N2C [Compound 381, (7S)-5-(2-fluoroethyl)-4,7,8-trimethyl-2-((trans-3-(3,4,5-trifluorophenoxy)-cyclobutyl)-amino)-7,8-dihydropteridin-6(5H)-one]",300 to 1000 nM
26,"Cc1nc(NCc2cnn(C(C)c3ccc(F)cc3)c2)nc2c1NC(=O)[C@H](C)N2C (stereo partly drawn) [Compound 382, (7S)-2-(((1-(1-(4-fluorophenyl)ethyl)-1H-pyrazol-4-yl)methyl)amino)-4,7,8-trimethyl-7,8-dihydropteridin-6(5H)-one]",< 300 nM
27,"C=C(C)c1nc(C(F)(F)F)ccc1Cn1cc(CNc2nc(C)c3c(n2)N(C)[C@@H](C)C(=O)N3)cn1 [Compound 387, (7S)-4,7,8-Trimethyl-2-(((1-((2-(prop-1-en-2-yl)-6-(trifluoromethyl)pyridin-3-yl)methyl)-1H-pyrazol-4-yl)methyl)amino)-7,8-dihydropteridin-6(5H)-one]",< 300 nM
28,"CC[C@H]1C(=O)Nc2c(C)nc(NCc3cnn(Cc4ccc(F)nc4)c3)nc2N1C [Compound 389, (7S)-7-Ethyl-2-(((1-((6-fluoropyridin-3-yl)methyl)-1H-pyrazol-4-yl)methyl)amino)-4,8-dimethyl-7,8-dihydropteridin-6(5H)-one]",< 300 nM
29,"Cc1nc(NCc2cnn(Cc3ccc(OCC(F)(F)F)nc3)c2)nc2c1NC(=O)[C@H](C)N2C [Compound 390, (7S)-4,7,8-trimethyl-2-(((1-((6-(2,2,2-trifluoroethoxy)pyridin-3-yl)methyl)-1H-pyrazol-4-yl)methyl)amino)-7,8-dihydropteridin-6(5H)-one]",< 300 nM
30,"CC[C@H]1C(=O)Nc2c(C)nc(NCc3cnn(Cc4cnc(F)c(OC)c4)c3)nc2N1C [Compound 394, (7S)-7-Ethyl-2-(((1-((6-fluoro-5-methoxypyridin-3-yl)methyl)-1H-pyrazol-4-yl)methyl)amino)-4,8-dimethyl-7,8-dihydropteridin-6(5H)-one]",< 300 nM

# Same assay, conditions: Homo sapiens, COLO 205, 5 h, Colo 205 cells with stably transfected TCF/LEF luciferase reporter; five hours after addition of compound; read-out: TCF reporter Colo205
row,Compound,IC50
1,"[2H]C([2H])([2H])N1c2nc(NCc3cnn(Cc4ccc(C(F)(F)F)nc4)c3)nc(C)c2NC(=O)[C@@H]1C [Compound 400, (7S)-4,7-dimethyl-8-(methyl-d3)-2-(((1-((6-(trifluoromethyl)pyridin-3-yl)methyl)-1H-pyrazol-4-yl)methyl)amino)-7,8-dihydropteridin-6(5H)-one]",< 300 nM
